Source: patent US7897602B2, “Indolinone compounds as kinase inhibitors” (Development Center for Biotechnology, priority 2009, dated 2011)

What was measured:
Flt3 kinase = target: T1, Flt3 kinase (Homo sapiens, UniProt P36888); test: Flt3 kinase assay (33P incorporation into Poly(Glu-Tyr)); assay type: biochemical; conditions: 100 nM test compound; read-out: Inhibition at 100 nM (%) Flt-3
T1 construct: recombinant N-terminal 6×His-tagged Flt3 kinase domain construct expressed from baculovirus; 6xHis (N); made in house
T1 sequence (P36888 610-943 limits assumed): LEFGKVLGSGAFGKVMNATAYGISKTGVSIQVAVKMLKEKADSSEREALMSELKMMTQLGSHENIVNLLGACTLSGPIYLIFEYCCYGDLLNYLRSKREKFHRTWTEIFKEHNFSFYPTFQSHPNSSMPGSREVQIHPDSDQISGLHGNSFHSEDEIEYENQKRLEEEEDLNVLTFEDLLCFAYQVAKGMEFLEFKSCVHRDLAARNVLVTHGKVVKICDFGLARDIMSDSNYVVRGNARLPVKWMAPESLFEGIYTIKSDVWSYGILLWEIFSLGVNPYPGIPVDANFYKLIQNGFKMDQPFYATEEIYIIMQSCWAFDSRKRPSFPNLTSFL
Procedure, shortened: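 Baculovirus-expressed His-tagged Flt3 kinase domain (5 ng) with Poly(Glu-Tyr) 4:1 substrate, 100 μM ATP plus [33P]-γ-ATP, in MOPS pH 7.0 buffer, 30 min at 30 °C. Compound tested at a single 100 nM concentration; filter-bound radioactivity counted and percent inhibition calculated relative to DMSO control.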

PDGFR-β kinase = target: T2, PDGFR-β kinase (Homo sapiens, UniProt P09619); test: PDGFR-β kinase assay (33P incorporation into Poly(Glu-Tyr)); assay type: biochemical; conditions: 500 nM test compound
T2 construct: recombinant N-terminal 6×His-tagged PDGFR-β kinase domain construct expressed by baculovirus; 6xHis (N); made in house
Procedure, shortened: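 His-tagged PDGFR-β kinase domain (55 ng) with Poly(Glu-Tyr) 4:1, 30 μM ATP plus [33P]-γ-ATP, pH 7.0 MnCl2 buffer, and 500 nM compound for 30 min at 30° C. Filter-bound radioactivity counted; inhibition computed relative to DMSO control.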

[1] = Body weight of mice in the COLO 205 tumor study; assay type: in vivo; conditions: NOD/SCID mice with COLO 205 tumors; i.v. 5, 10 or 20 mg/kg qd × 14
Protocol: (§1) COLO 205 (1×10^6 cell/mouse) tumor cells were subcutaneously injected into the right flank of 5 week old male NOD/SCID mice (BioLASCO, Taiwan). Tumor volume was measured with a digital caliper once tumor was palpable (within 10 to 15 days after implantation). Compound treatment was started after 1-3 weeks when the tumors had reached an average volume of ˜50 to 100 mm^3. Mice were divided into 5 groups as listed in Table 4 below and were given intravenous injections with test compound at different dosage (5 mg/kg, 10 mg/kg, or 20 mg/kg), SU11248 (20 mg/kg, positive control), or vehicle control (DMSO:Cremophor:PBS (pH 7.4)=[…]) one time every day. The test compound, DCB-70055, was formulated in a solution of 5% DMSO, 10% Cremophor, and 85% PBS. The positive control, SU11248, was dissolved in 100% PBS. Body weights of the mice were measured every two to three days and the tumor sizes in different groups of mice were measured by digital caliper every two to three days.

COLO 205 tumor cells = test: In vivo anti-cancer activity, COLO 205 subcutaneous tumor model; conditions: COLO 205 s.c. tumors in NOD/SCID mice; i.v. 5, 10 or 20 mg/kg qd × 14
Protocol: as §1

T2 sequence (P09619 600-962 limits assumed): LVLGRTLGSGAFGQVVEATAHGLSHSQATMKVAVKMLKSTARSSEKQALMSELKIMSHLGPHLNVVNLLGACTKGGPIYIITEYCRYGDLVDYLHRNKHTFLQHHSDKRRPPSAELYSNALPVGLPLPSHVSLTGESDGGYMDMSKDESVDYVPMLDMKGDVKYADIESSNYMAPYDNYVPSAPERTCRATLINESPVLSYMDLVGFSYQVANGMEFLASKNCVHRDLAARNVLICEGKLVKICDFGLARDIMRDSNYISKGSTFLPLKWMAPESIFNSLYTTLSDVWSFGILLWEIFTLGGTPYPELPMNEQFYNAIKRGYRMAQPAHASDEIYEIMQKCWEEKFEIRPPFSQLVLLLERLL

Row | Compound | inhibition at 0.1 µM (Flt3 kinase) [%] | inhibition at 0.5 µM (PDGFR-β kinase) [%] | weight loss (body weight) [1] | tumor growth in vivo (COLO 205 tumor cells)
1 | O=C(O)CCc1c(/C=C2\C(=O)Nc3ccc(F)cc32)[nH]c2c1C(=O)CCC2 [DCB-70055, (Z)-5-fluoro-3-((3-carboxyethyl-4-oxo-4,5,6,7-tetrahydro-1H-indol-2-yl)methylene)indolin-2-one] | 86.5 | 83.5 | without inducing significant weight loss | inhibited tumor growth in vivo
2 | O=C(O)CCc1c(/C=C2\C(=O)Nc3ccc(NCc4ccccc4)cc32)[nH]c2c1C(=O)CCC2 [DCB-70132, (Z)-3-(2-((5-(benzylamino)-2-oxoindolin-3-ylidene)methyl)-4-oxo-4,5,6,7-tetrahydro-1H-indol-3-yl)propanoic acid] | 3.7 | 29.3 |  | 
3 | O=C(O)CCc1c(/C=C2\C(=O)Nc3cc(Br)ccc32)[nH]c2c1C(=O)CCC2 [DCB-70133, (Z)-3-(2-((6-bromo-2-oxoindolin-3-ylidene)methyl)-4-oxo-4,5,6,7-tetrahydro-1H-indol-3-yl)propanoic acid] | 6.1 | 8.3 |  | 
4 | CCOC(=O)CCc1c(/C=C2\C(=O)Nc3ccc(NC(=O)Nc4ccccc4)cc32)[nH]c2c1C(=O)CCC2 [DCB-70134, (Z)-ethyl 3-(4-oxo-2-((2-oxo-5-(3-phenylureido)indolin-3-ylidene)methyl)-4,5,6,7-tetrahydro-1H-indol-3-yl)propanoate] | 40.9 | 24 |  | 
5 | CCOC(=O)CCc1c(/C=C2\C(=O)Nc3ccc(NC(=O)Nc4ccc(Br)cc4)cc32)[nH]c2c1C(=O)CCC2 [DCB-70135, (Z)-ethyl 3-(2-((5-(3-(4-bromophenyl)ureido)-2-oxoindolin-3-ylidene)methyl)-4-oxo-4,5,6,7-tetrahydro-1H-indol-3-yl)propanoate] | 20.3 | 12 |  | 

Further lines, with some results ahead:

Row | inhibition at 0.1 µM (Flt3 kinase) [%] | inhibition at 0.5 µM (PDGFR-β kinase) [%] | Compound | weight loss (body weight) [1] | tumor growth in vivo (COLO 205 tumor cells)
6 | 39.3 | 21.4 | CCOC(=O)CCc1c(/C=C2\C(=O)Nc3ccc(NC(=O)Nc4ccc(F)cc4)cc32)[nH]c2c1C(=O)CCC2 [DCB-70136, (Z)-ethyl 3-(2-((5-(3-(4-fluorophenyl)ureido)-2-oxoindolin-3-ylidene)methyl)-4-oxo-4,5,6,7-tetrahydro-1H-indol-3-yl)propanoate] |  | 
7 | 33.8 | 11.5 | CCOC(=O)CCc1c(/C=C2\C(=O)Nc3ccc(NC(=O)Nc4ccc(Cl)c(C(F)(F)F)c4)cc32)[nH]c2c1C(=O)CCC2 [DCB-70137, (Z)-ethyl 3-(2-((5-(3-(4-chloro-3-(trifluoromethyl)phenyl)ureido)-2-oxoindolin-3-ylidene)methyl)-4-oxo-4,5,6,7-tetrahydro-1H-indol-3-yl)propanoate] |  | 
8 | 5.5 | 7.5 | CCOC(=O)CCc1c(/C=C2\C(=O)Nc3ccc(NC(=O)c4ccc([N+](=O)[O-])cc4)cc32)[nH]c2c1C(=O)CCC2 [DCB-70140, (Z)-ethyl 3-(2-((5-(4-nitrobenzamido)-2-oxoindolin-3-ylidene)methyl)-4-oxo-4,5,6,7-tetrahydro-1H-indol-3-yl)propanoate] |  | 
9 | 38.7 | 2.4 | CCOC(=O)CCc1c(/C=C2\C(=O)Nc3ccc(NS(=O)(=O)c4ccc(F)cc4)cc32)[nH]c2c1C(=O)CCC2 [DCB-70144, (Z)-ethyl 3-(2-((5-(4-fluorophenylsulfonamido)-2-oxoindolin-3-ylidene)methyl)-4-oxo-4,5,6,7-tetrahydro-1H-indol-3-yl)propanoate] |  | 
10 | 24 | 14.5 | O=C(O)CCc1c(/C=C2\C(=O)Nc3ccc(NS(=O)(=O)c4ccc(F)cc4)cc32)[nH]c2c1C(=O)CCC2 [DCB-70145, (Z)-3-(2-((5-(4-fluorophenylsulfonamido)-2-oxoindolin-3-ylidene)methyl)-4-oxo-4,5,6,7-tetrahydro-1H-indol-3-yl)propanoic acid] |  | 
11 | 59.9 | 19.7 | CCOC(=O)CCc1c(/C=C2\C(=O)Nc3ccc(NS(=O)(=O)c4ccccc4)cc32)[nH]c2c1C(=O)CCCC2 [DCB-70146, (Z)-ethyl 3-(4-oxo-2-((2-oxo-5-(phenylsulfonamido)indolin-3-ylidene)methyl)-1,4,5,6,7,8-hexahydrocyclohepta[b]pyrrol-3-yl)propanoate] |  | 
12 | 43.8 | 17.3 | O=C(O)CCc1c(/C=C2\C(=O)Nc3ccc(NS(=O)(=O)c4ccccc4)cc32)[nH]c2c1C(=O)CCCC2 [DCB-70147, (Z)-3-(4-oxo-2-((2-oxo-5-(phenylsulfonamido)indolin-3-ylidene)methyl)-1,4,5,6,7,8-hexahydrocyclohepta[b]pyrrol-3-yl)propanoic acid] |  | 
